Here are results for 2 compounds from publication PMC8213057, “Targeting ALK2: An Open Science Approach to Developing Therapeutics for the Treatment of Diffuse Intrinsic Pontine Glioma” (Journal of Medicinal Chemistry, 2020).

Assay [1] has as its system FMS.
Assay [2] concerns the target T1, TAOK1 (Homo sapiens, UniProt Q7L7X3).
T1 construct: purchased Reaction Biology Corporation
T1 sequence (Q7L7X3 1-1001): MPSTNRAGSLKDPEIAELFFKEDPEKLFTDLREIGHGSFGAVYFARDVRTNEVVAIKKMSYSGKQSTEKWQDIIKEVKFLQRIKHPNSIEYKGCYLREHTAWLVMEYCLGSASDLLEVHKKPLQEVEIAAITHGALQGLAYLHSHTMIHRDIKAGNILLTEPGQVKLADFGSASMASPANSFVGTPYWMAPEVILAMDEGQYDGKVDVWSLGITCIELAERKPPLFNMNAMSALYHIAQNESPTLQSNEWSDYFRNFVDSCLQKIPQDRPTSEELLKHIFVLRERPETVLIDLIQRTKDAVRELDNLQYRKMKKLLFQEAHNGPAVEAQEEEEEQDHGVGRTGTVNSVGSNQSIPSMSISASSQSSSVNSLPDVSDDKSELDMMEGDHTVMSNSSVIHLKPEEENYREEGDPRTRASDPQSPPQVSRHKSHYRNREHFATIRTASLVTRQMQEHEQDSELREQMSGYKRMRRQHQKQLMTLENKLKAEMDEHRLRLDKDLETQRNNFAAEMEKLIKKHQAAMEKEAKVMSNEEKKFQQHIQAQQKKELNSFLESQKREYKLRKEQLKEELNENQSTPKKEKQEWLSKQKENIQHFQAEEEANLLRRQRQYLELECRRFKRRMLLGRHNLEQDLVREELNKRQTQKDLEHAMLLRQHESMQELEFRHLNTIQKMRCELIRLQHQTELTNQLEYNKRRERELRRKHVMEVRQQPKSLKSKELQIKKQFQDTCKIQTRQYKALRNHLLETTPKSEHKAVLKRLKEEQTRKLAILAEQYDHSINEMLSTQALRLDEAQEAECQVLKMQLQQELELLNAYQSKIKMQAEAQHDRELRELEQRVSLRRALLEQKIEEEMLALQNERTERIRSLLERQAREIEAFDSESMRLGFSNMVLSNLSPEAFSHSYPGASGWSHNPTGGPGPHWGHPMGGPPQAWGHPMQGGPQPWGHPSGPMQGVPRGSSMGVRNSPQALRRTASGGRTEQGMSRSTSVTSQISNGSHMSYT
Description: 375-member kinase panel. The format is biochemical. To be noted: Run 1, Run 2; for % enzyme activity: 1 μM; for remaining activity at 1 µM: read-out: % enzyme activity, 1 μM.

For assay [3], the target named is CAMK1a (Homo sapiens, UniProt Q14012). The conditions noted are these: 1 μM; Run 1, Run 2.
Assay [4] concerns the target CAMK1b (Homo sapiens, UniProt Q6P2M8). The conditions noted are these: 1 μM; Run 1, Run 2.
Assay [5] concerns the target EGFR (Homo sapiens, UniProt P00533). The conditions noted are these: 1 μM; Run 1, Run 2.
Assay [6] concerns the target T2, GRK7 (Homo sapiens, UniProt Q8WTQ7).
T2 sequence (Q8WTQ7 1-553): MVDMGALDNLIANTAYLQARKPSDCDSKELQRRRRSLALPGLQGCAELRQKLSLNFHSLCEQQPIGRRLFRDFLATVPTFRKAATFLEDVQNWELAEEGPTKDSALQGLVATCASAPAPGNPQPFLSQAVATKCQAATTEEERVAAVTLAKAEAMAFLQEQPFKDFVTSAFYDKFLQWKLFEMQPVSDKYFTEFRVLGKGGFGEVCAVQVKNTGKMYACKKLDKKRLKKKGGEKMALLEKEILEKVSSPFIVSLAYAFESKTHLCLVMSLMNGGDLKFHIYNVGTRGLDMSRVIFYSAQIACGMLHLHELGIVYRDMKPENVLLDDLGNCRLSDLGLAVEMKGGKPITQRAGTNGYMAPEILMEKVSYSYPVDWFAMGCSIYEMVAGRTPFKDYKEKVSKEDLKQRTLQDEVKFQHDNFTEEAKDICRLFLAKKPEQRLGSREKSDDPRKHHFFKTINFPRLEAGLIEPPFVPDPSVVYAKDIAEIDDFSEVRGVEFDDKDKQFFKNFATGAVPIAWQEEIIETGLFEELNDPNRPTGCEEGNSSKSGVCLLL
The conditions noted are these: 1 μM; Run 1, Run 2.

For assay [7], the target named is MLCK/MYLK (Homo sapiens, UniProt Q15746). The conditions noted are these: 1 μM; Run 1, Run 2.
Assay [8] has as its target NEK7 (Homo sapiens, UniProt Q8TDX7). To be noted: 1 μM; Run 1, Run 2.
The target of assay [9] is RAF1 (Homo sapiens, UniProt P04049). The conditions noted are these: 1 μM; Run 1, Run 2.
Assay [10] concerns the target CDK1/cyclin E (Homo sapiens, UniProt P06493). Description: biochemical. The conditions noted are these: read-out: % enzyme activity, 1 μM; Run 1, Run 2.
Assay [11] deals with CDK2/cyclin A (Homo sapiens, UniProt P24941). Description: biochemical. The conditions noted are these: read-out: % enzyme activity, 1 μM; Run 1, Run 2.
The target of assay [12] is EPHA5 (Homo sapiens, UniProt P54756). Description: biochemical. The conditions noted are these: read-out: % enzyme activity, 1 μM; Run 1, Run 2.
Assay [13] deals with MLCK2/MYLK2 (Homo sapiens, UniProt Q9H1R3). Description: biochemical. To be noted: read-out: % enzyme activity, 1 μM; Run 1, Run 2.
Assay [14] addresses MRCKa/CDC42BPA (Homo sapiens, UniProt Q5VT25). Description: biochemical. The conditions noted are these: read-out: % enzyme activity, 1 μM; Run 1, Run 2.
Assay [15] deals with PAK2 (Homo sapiens, UniProt Q13177). Description: biochemical. To be noted: read-out: % enzyme activity, 1 μM; Run 1, Run 2.
Assay [16] concerns the target RIPK2 (Homo sapiens, UniProt O43353). Description: biochemical. To be noted: read-out: % enzyme activity, 1 μM; Run 1, Run 2.
Assay [17] deals with STK32B/YANK2 (Homo sapiens, UniProt Q9NY57). Description: biochemical. The conditions noted are these: read-out: % enzyme activity, 1 μM; Run 1, Run 2.
The target of assay [18] is TIE2/TEK (Homo sapiens, UniProt Q02763). Description: biochemical. To be noted: read-out: % enzyme activity, 1 μM; Run 1, Run 2.
Assay [19] has as its target TYK2 (Homo sapiens, UniProt P29597). Description: biochemical. The conditions noted are these: read-out: % enzyme activity, 1 μM; Run 1, Run 2.
In assay [20] the target is WEE1 (Homo sapiens, UniProt P30291). Description: biochemical. To be noted: read-out: % enzyme activity, 1 μM; Run 1, Run 2.

The structures appear in SMILES notation. Where “and” joins values, the source holds several entries; their conditions need not be identical. Identical values can stand only once.

Chain of PAK2 (Q13177 whole entry): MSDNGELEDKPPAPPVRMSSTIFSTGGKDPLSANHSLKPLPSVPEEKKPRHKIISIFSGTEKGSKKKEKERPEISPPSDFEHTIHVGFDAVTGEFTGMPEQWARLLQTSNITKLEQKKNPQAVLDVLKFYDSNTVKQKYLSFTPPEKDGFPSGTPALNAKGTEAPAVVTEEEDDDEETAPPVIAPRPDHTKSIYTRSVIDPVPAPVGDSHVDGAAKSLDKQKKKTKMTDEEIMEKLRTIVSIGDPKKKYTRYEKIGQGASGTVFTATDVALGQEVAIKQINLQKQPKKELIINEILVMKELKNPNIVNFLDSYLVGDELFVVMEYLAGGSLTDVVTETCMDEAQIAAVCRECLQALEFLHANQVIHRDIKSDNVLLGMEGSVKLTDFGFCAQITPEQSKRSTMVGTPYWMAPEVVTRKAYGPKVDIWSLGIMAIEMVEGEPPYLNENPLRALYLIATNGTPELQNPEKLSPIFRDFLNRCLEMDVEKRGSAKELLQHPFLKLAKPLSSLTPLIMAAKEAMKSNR
Chain of NEK7 (Q8TDX7 whole entry): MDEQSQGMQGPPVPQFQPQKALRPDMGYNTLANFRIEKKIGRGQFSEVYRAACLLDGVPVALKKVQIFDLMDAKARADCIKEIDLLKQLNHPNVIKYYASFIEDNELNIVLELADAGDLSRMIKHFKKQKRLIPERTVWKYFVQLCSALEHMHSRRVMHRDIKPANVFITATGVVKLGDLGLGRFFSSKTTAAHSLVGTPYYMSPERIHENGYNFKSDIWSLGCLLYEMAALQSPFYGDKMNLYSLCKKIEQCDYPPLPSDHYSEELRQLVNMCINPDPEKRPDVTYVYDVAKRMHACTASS
Chain of WEE1 (P30291 whole entry, species assumed): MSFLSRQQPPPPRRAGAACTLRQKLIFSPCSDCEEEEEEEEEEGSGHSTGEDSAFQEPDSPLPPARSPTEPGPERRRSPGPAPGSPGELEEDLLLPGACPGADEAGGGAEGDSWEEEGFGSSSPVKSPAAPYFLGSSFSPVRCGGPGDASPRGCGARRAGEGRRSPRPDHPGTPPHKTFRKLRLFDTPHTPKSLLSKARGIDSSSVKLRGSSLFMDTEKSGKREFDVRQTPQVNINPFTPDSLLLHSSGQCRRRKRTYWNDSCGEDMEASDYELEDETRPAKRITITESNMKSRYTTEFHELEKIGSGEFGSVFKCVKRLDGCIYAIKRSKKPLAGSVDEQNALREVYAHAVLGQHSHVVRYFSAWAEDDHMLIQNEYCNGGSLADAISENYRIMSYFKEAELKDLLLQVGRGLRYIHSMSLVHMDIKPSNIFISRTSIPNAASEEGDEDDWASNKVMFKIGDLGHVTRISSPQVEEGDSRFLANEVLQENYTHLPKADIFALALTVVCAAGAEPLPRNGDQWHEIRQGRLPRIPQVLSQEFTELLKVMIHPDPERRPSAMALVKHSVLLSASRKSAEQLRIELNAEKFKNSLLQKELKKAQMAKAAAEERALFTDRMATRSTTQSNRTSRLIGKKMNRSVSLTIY
Chain of EPHA5 (P54756 25-1037): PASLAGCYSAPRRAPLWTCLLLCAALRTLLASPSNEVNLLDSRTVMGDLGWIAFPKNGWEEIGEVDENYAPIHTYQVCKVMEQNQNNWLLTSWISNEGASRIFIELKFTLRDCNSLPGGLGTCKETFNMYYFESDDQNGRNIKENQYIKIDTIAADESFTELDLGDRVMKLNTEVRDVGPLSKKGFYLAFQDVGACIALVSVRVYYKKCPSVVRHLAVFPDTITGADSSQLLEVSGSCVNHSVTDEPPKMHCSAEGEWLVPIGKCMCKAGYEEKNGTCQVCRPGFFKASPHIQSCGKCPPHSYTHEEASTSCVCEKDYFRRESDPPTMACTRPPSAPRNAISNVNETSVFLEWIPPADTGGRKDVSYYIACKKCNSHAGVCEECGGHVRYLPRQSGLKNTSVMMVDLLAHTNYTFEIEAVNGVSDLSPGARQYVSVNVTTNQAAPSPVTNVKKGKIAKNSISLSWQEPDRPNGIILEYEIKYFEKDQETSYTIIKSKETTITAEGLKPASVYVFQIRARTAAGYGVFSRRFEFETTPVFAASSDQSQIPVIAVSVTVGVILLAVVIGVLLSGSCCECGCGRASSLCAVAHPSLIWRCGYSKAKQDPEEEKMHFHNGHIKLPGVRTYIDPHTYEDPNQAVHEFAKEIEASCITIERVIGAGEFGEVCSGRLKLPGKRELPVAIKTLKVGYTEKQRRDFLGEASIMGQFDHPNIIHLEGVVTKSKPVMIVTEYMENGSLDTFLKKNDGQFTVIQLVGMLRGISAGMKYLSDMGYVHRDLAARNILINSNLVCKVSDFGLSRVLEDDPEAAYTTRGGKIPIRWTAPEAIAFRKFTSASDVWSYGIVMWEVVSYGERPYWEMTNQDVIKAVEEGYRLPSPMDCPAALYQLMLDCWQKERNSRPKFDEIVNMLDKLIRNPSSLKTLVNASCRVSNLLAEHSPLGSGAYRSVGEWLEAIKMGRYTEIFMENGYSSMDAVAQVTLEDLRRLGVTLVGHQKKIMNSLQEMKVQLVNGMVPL
Chain of RIPK2 (O43353 whole entry): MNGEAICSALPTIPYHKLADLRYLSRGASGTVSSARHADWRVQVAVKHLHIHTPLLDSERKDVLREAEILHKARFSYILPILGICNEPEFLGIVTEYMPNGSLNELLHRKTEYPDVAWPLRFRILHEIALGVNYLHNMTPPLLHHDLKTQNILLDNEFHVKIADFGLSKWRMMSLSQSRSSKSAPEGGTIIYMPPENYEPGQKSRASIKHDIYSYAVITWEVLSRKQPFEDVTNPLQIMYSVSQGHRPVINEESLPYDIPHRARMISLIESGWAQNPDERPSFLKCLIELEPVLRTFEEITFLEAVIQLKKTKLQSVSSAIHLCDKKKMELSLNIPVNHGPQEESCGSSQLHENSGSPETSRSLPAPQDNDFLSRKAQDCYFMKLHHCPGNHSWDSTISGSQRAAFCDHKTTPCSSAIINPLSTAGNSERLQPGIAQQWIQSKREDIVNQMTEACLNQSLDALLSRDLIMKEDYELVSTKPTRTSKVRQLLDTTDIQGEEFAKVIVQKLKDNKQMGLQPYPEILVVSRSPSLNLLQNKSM
Chain of STK32B/YANK2 (Q9NY57 whole entry): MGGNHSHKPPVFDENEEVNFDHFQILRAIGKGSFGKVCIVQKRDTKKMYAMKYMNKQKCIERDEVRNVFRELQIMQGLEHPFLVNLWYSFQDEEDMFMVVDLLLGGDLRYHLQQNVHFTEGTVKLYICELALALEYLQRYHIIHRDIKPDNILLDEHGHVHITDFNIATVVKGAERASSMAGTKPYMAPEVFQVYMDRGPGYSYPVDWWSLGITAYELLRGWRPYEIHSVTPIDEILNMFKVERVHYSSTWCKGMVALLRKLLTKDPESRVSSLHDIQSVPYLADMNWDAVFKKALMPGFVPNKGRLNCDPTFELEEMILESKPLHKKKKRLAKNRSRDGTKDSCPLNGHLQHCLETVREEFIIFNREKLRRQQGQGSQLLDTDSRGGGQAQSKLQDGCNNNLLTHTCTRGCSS
Chain of CAMK1a (Q14012 whole entry): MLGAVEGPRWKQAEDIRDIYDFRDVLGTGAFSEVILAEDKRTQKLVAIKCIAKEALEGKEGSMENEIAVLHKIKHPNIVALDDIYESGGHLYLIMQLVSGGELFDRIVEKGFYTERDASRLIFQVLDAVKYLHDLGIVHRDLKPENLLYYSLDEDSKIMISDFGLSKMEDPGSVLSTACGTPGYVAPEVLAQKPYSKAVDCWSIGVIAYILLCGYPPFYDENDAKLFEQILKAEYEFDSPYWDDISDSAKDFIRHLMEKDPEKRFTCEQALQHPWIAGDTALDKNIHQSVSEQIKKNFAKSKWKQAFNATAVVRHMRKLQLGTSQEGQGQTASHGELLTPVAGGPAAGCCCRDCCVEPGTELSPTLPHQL
Chain of RAF1 (P04049 whole entry): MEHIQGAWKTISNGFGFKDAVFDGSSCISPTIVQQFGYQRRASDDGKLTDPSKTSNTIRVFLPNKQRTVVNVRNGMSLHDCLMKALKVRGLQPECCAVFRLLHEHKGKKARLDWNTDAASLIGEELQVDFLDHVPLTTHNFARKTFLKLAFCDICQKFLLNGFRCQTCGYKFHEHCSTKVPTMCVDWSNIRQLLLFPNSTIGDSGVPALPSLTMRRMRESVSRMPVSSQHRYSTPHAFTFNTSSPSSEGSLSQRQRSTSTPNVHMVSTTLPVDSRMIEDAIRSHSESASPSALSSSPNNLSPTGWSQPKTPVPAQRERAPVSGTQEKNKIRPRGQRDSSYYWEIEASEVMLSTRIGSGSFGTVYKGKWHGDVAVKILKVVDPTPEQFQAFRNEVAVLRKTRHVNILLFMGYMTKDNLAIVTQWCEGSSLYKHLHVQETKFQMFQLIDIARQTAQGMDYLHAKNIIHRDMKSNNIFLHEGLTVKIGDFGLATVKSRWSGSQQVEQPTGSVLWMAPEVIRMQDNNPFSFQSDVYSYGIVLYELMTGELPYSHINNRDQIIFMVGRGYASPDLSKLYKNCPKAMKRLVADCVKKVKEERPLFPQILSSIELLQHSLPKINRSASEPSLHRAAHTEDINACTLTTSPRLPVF
Chain of CAMK1b (Q6P2M8 whole entry): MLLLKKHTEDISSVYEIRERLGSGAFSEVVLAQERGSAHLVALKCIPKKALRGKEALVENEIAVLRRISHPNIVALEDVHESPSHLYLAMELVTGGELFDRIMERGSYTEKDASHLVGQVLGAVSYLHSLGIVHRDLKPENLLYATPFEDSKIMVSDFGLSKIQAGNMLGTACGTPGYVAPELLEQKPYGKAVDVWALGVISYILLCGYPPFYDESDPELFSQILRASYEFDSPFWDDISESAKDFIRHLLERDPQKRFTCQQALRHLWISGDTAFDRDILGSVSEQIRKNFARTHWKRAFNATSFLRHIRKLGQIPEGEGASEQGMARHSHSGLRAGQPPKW

On to `COc1cc(-c2cncc(-c3ccc(N4CCN(C)CC4)cc3)c2C)cc(F)c1C(N)=O` [Compound 26a, 2-Fluoro-6-methoxy-4-(4-methyl-5-(4-(4-methylpiperazin-1-yl)phenyl)pyridin-3-yl)benzamide], for which the % enzyme activity at 1 μM in [1] is 82.2% and 75.7%. Besides, the “% enzyme activity” value in [2] amounted to 60.19%; in assay [3] it was 92.25%; in [4] it was 95.63%; in assay [5], 95.66%; in assay [6] it was 93.81%; in assay [7], 106.15%. The “% enzyme activity” value in assay [8] was determined as 96.68%; in assay [9], 78.57%. Also, the remaining activity at 1 µM in [2] was 60.3%; in assay [10], 98.3%; in [11], 100%; in assay [12] it was 92.2%; in [13] it was 66.8%; in assay [14] it was 103%. Further, the remaining activity at 1 µM in assay [15] is 101%; in assay [16], 71.1%; in [17], 87.6%; in assay [18], 93.8%; in assay [19], 92.6%; in assay [20] it was 105%.

Consider `COc1cc(-c2cncc(-c3ccc(N4C[C@@H](C)N(C)[C@@H](C)C4)cc3)c2C)cc(F)c1C(N)=O` [Compound 26c, 2-Fluoro-6-methoxy-4-(4-methyl-5-(4-((3R,5S)-3,4,5-trimethylpiperazin-1-yl)phenyl)pyridin-3-yl)benzamide], for which the % enzyme activity at 1 μM in assay [1] is 79.5% and 78.8%. Besides, the “% enzyme activity” value in [2] is recorded as 60.59%; in assay [3], 96.82%; in assay [4] it was 99.02%; in assay [5], 93.91%; in assay [6], 91.35%; in [7], 101.49%. For the same compound, the “% enzyme activity” value in assay [8] came to 97.32%; in assay [9], 83.85%. The remaining activity at 1 µM was 62.2% in [2]; 92.4% in assay [10]; 100% in [11]; 92.7% in assay [12]; 84.8% in [13]; 105% in assay [14]. Moreover, the remaining activity at 1 µM is 104% in [15]; 89.7% in assay [16]; 98.2% in [17]; 93.4% in assay [18]; 103% in assay [19]; 105% in [20].
